Laboratory results: patent publication US8551984B2, “Aminopyrimidines as SYK inhibitors” (Merck Sharp & Dohme Corp., priority 2009, dated 2013)
Counter-ions that a name gives are not always drawn.

Target: recombinant human SYK (GST-hSYK fusion protein) (Homo sapiens, UniProt P43405)
Assay: biochemical
Details: rhSYK Activity (IC50), recombinant human GST-SYK 5 pM, ATP 25 μM, biotinylated substrate peptide 250 nM, HTRF, 10-dose titration
Source text: Homogeneous Time-Resolved Fluorescence (HTRF) Assay for the Recombinant Human SYK Enzyme:

| IC50 [nM] | Compound |
| --- | --- |
| < 100 | Cc1cc(Nc2nccc(C(F)(F)F)n2)cc(-c2cnc(CC(C)(C)C(=O)O)s2)c1 [Example 78, 2,2-dimethyl-3-[5-(3-methyl-5-{[4-(trifluoromethyl)pyrimidin-2-yl]amino}phenyl)-1,3-thiazol-2-yl]propanoic acid (potassium salt and TFA salt)] |
| < 100 | CCOC(=O)CCc1ncc(-c2cc(C)cc(Nc3nccc(C(F)(F)F)n3)c2)s1 [Example 79-1, Ethyl 3-[5-(3-methyl-5-{[4-(trifluoromethyl)pyrimidin-2-yl]amino}phenyl)-1,3-thiazol-2-yl]-propanoate] |
| < 100 | Cc1cc(Nc2nccc(C(F)(F)F)n2)cc(-c2cnc(CCC(N)=O)s2)c1 [Example 79-2] |
| < 100 | Cc1cc(Nc2nccc(C(F)(F)F)n2)cc(-c2cnc(CCC(=O)N(C)C)s2)c1 [Example 79-4] |

Same assay, conditions: rhSYK Activity, Table 54E

| IC50 [nM] | Compound |
| --- | --- |
| < 100 | Cc1cc(Nc2nccc(C(F)(F)F)n2)cc(-c2cnc([C@]3(O)CC[C@@H](NC(=O)Cc4c[nH]cn4)CC3)s2)c1 [Example 54E-10] |
| < 100 | Cc1cc(Nc2nccc(C(F)(F)F)n2)cc(-c2cnc(C3(O)CCC(NC(=O)Cn4cncn4)CC3)s2)c1 (centres unmarked) [Example 54E-11] |
| < 100 | Cc1cc(Nc2nccc(C(F)(F)F)n2)cc(-c2cnc([C@]3(O)CC[C@@H](NC(=O)Cn4ccnn4)CC3)s2)c1 [Example 54E-12] |
| < 100 | Cc1cc(Nc2nccc(C(F)(F)F)n2)cc(-c2cnc(C3(O)CCC(NC(=O)Cn4cnnn4)CC3)s2)c1 (centres unmarked) [Example 54E-13] |
| < 100 | Cc1cc(Nc2nccc(C(F)(F)F)n2)cc(-c2cnc([C@]3(O)CC[C@@H](NC(=O)C4CCCCC4)CC3)s2)c1 [Example 54E-14] |
| < 100 | Cc1cc(Nc2nccc(C(F)(F)F)n2)cc(-c2cnc(C3(O)CCC(NC(=O)C4CNC(=O)N4)CC3)s2)c1 (centres unmarked) [Example 54E-15] |
| < 100 | Cc1cc(Nc2nccc(C(F)(F)F)n2)cc(-c2cnc(C3(O)CCC(NC(=O)C4CCCCO4)CC3)s2)c1 (centres unmarked) [Example 54E-16] |
| < 100 | Cc1cc(Nc2nccc(C(F)(F)F)n2)cc(-c2cnc(C3(O)CCC(NC(=O)CC4CCCO4)CC3)s2)c1 (centres unmarked) [Example 54E-17] |
| < 100 | Cc1cc(Nc2nccc(C(F)(F)F)n2)cc(-c2cnc(C3(O)CCC(NC(=O)C(C)(CO)CO)CC3)s2)c1 (centres unmarked) [Example 54E-20] |
| < 100 | Cc1cc(Nc2nccc(C(F)(F)F)n2)cc(-c2cnc([C@]3(O)CC[C@@H](NC(=O)Cc4ccccn4)CC3)s2)c1 [Example 54E-21] |
| < 100 | Cc1cc(Nc2nccc(C(F)(F)F)n2)cc(-c2cnc([C@]3(O)CC[C@@H](NC(=O)CS(C)(=O)=O)CC3)s2)c1 [Example 54E-22] |
| < 100 | Cc1cc(Nc2nccc(C(F)(F)F)n2)cc(-c2cnc([C@]3(O)CC[C@@H](NC(=O)Cc4ncccn4)CC3)s2)c1 [Example 54E-23] |
| < 100 | Cc1cc(Nc2nccc(C(F)(F)F)n2)cc(-c2cnc([C@]3(O)CC[C@@H](NC(=O)c4ccc(O)cn4)CC3)s2)c1 [Example 54E-24] |
| < 100 | Cc1cc(Nc2nccc(C(F)(F)F)n2)cc(-c2cnc(C3(O)CCC(NC(=O)c4cccc(O)n4)CC3)s2)c1 (centres unmarked) [Example 54E-25] |
| < 100 | Cc1cc(Nc2nccc(C(F)(F)F)n2)cc(-c2cnc([C@]3(O)CC[C@@H](NC(=O)CCc4cn[nH]c4)CC3)s2)c1 [Example 54E-26] |
| < 100 | Cc1cc(Nc2nccc(C(F)(F)F)n2)cc(-c2cnc(C3(O)CCC(NC(=O)CCn4cncn4)CC3)s2)c1 (centres unmarked) [Example 54E-27] |
| < 100 | Cc1cc(Nc2nccc(C(F)(F)F)n2)cc(-c2cnc(C3(O)CCC(NC(=O)C4CCCC(=O)N4)CC3)s2)c1 (centres unmarked) [Example 54E-28] |
| < 100 | Cc1cc(Nc2nccc(C(F)(F)F)n2)cc(-c2cnc(C3(O)CCC(NC(=O)CC4CCOCC4)CC3)s2)c1 (centres unmarked) [Example 54E-29] |
| < 100 | Cc1cc(Nc2nccc(C(F)(F)F)n2)cc(-c2cnc(C3(O)CCC(NC(=O)C(O)C(F)(F)F)CC3)s2)c1 (centres unmarked) [Example 54E-30] |
| < 100 | Cc1cc(Nc2nccc(C(F)(F)F)n2)cc(-c2cnc(C3(O)CCC(NC(=O)CCC(=O)N(C)C)CC3)s2)c1 (centres unmarked) [Example 54E-31] |
| < 100 | C#Cc1ccc(C(=O)NC2CCC(O)(c3ncc(-c4cc(C)cc(Nc5nccc(C(F)(F)F)n5)c4)s3)CC2)cc1 (centres unmarked) [Example 54E-32] |
| < 100 | Cc1cc(Nc2nccc(C(F)(F)F)n2)cc(-c2cnc([C@]3(O)CC[C@@H](NC(=O)c4ccc(C#N)cc4)CC3)s2)c1 [Example 54E-33] |
| < 100 | Cc1cc(Nc2nccc(C(F)(F)F)n2)cc(-c2cnc(C3(O)CCC(NC(=O)c4cc(O)ccc4F)CC3)s2)c1 (centres unmarked) [Example 54E-35] |
| < 100 | Cc1cc(Nc2nccc(C(F)(F)F)n2)cc(-c2cnc([C@]3(O)CC[C@@H](NC(=O)c4ccc(O)c(F)c4)CC3)s2)c1 [Example 54E-36] |
| < 100 | Cc1cc(Nc2nccc(C(F)(F)F)n2)cc(-c2cnc(C3(O)CCC(NC(=O)CC(N)C(F)(F)F)CC3)s2)c1 (centres unmarked) [Example 54E-37] |
| < 100 | COC(=O)C1CCC(C(=O)NC2CCC(O)(c3ncc(-c4cc(C)cc(Nc5nccc(C(F)(F)F)n5)c4)s3)CC2)CC1 (centres unmarked) [Example 54E-38] |

Same assay, conditions: rhSYK Activity, Table 56

| IC50 [nM] | Compound |
| --- | --- |
| < 100 | Cc1cc(Nc2nccc(C)n2)cc(-c2cnc(C3(O)CCC3)s2)c1 [Example 56-1] |
| < 100 | CCc1ccnc(Nc2cc(C)cc(-c3cnc(C4(O)CCC4)s3)c2)n1 [Example 56-2] |
| < 100 | Cc1cc(Nc2nccc(C3CC3)n2)cc(-c2cnc(C3(O)CCC3)s2)c1 [Example 56-3] |

Same assay, conditions: rhSYK Activity, Table 61B

| IC50 [nM] | Compound |
| --- | --- |
| < 100 | Cc1cc(Nc2nccc(C(F)(F)F)n2)cc(-c2cnc(C3(N)CCC3)s2)c1 [Example 61B-1, N-{3-[2-(1-aminocyclobutyl)-1,3-thiazol-5-yl]-5-methylphenyl}-4-(trifluoromethyl)pyrimidin-2-amine] |
| < 100 | Cc1cc(Nc2nccc(C(F)(F)F)n2)cc(-c2cnc(C3(NS(=O)(=O)CC(F)(F)F)CCC3)s2)c1 [Example 61B-2] |
| < 100 | Cc1cc(Nc2nccc(C(F)(F)F)n2)cc(-c2cnc(C3(NS(=O)(=O)CF)CCC3)s2)c1 [Example 61B-3] |
| < 100 | Cc1cc(Nc2nccc(C(F)(F)F)n2)cc(-c2cnc(C3(NS(C)(=O)=O)CCC3)s2)c1 [Example 61B-4] |
| < 100 | Cc1cc(Nc2nccc(C(F)(F)F)n2)cc(-c2cnc(C3(NS(=O)(=O)C(F)(F)F)CCC3)s2)c1 [Example 61B-5] |
| < 100 | Cc1cc(Nc2nccc(C(F)(F)F)n2)cc(-c2cnc(C3(NS(=O)(=O)CC(F)(F)F)COC3)s2)c1 [Example 61B-7] |
| < 100 | Cc1cc(Nc2nccc(C(F)(F)F)n2)cc(-c2cnc(C3(N[S+]([O-])C(F)F)COC3)s2)c1 (centres unmarked) [Example 61B-8] |
| < 100 | CS(=O)(=O)NC1(c2ncc(-c3cccc(Nc4nccc(C(F)(F)F)n4)c3)s2)COC1 [Example 61B-9] |
| < 100 | COc1nc(Nc2cc(C)cc(-c3cnc(C4(N)COC4)s3)c2)ncc1Cl [Example 61B-10] |

Same assay, conditions: rhSYK Activity, Table 62

| IC50 [nM] | Compound |
| --- | --- |
| < 100 | Cc1cc(Nc2ncccn2)cc(-c2cnc(C3(N)CCC3)s2)c1 [Example 62-1] |
| < 100 | COc1ccnc(Nc2cc(C)cc(-c3cnc(C4(N)CCC4)s3)c2)n1 [Example 62-2] |

Same assay, conditions: rhSYK Activity, Table 63

| IC50 [nM] | Compound |
| --- | --- |
| < 100 | Cc1cc(Nc2ncc(F)c(C)n2)cc(-c2cnc(C3(NS(N)(=O)=O)COC3)s2)c1 [Example 63-1] |
| < 100 | COc1nc(Nc2cc(C)cc(-c3cnc(C4(NS(N)(=O)=O)COC4)s3)c2)ncc1Cl [Example 63-2] |
| < 100 | Cc1cc(Nc2nccc(C(F)(F)F)n2)cc(-c2cnc(C3(NS(N)(=O)=O)CCC3)s2)c1 [Example 63-3] |
| < 100 | Cc1cc(Nc2nccc(C(F)(F)F)n2)cc(-c2cnc(C(NS(N)(=O)=O)(C3CC3)C3CC3)s2)c1 [Example 63-4] |

Same assay, conditions: rhSYK Activity, Table 64, first part

| IC50 [nM] | Compound |
| --- | --- |
| < 100 | Cc1cc(Nc2nccc(C(F)(F)F)n2)cc(-c2cnc(C3(NC(N)=O)COC3)s2)c1 [Example 64-1] |
| < 100 | Cc1cc(Nc2nccc(C3CC3)n2)cc(-c2cnc(C3(NC(N)=O)CCC3)s2)c1 [Example 64-2] |
| < 100 | Cc1cc(Nc2ncccn2)cc(-c2cnc(C3(NC(N)=O)CCC3)s2)c1 [Example 64-3] |
| < 100 | Cc1cc(Nc2ncc(F)c(C3CC3)n2)cc(-c2cnc(C3(NC(N)=O)CCC3)s2)c1 [Example 64-6] |
| < 100 | NC(=O)NC1(c2ncc(-c3cc(F)cc(Nc4ncc(F)c(C5CC5)n4)c3)s2)CCC1 [Example 64-7] |
| < 100 | COc1nc(Nc2cc(C)cc(-c3cnc(C4(NC(N)=O)CCC4)s3)c2)ncc1Cl [Example 64-8] |
| < 100 | Cc1cc(Nc2nccc(C(F)(F)F)n2)cc(-c2cnc(C3(NC(N)=O)CCNC(=O)CC3)s2)c1 (centres unmarked) [Example 64-9] |

Same assay, conditions: rhSYK Activity, Table 64, second part (structure)

| IC50 [nM] | Compound |
| --- | --- |
| < 100 | Cc1cc(Nc2nccc(C(F)(F)F)n2)cc(-c2cnc(C(NC(N)=O)(C3CC3)C3CC3)s2)c1 [Example 64-10] |

Same assay, conditions: rhSYK Activity, Table 70

| IC50 [nM] | Compound |
| --- | --- |
| < 100 | Cc1cc(Nc2nccc(C(C)(C)C)n2)cc(-c2cnc(C(C)(C)S(N)(=O)=O)s2)c1 [Example 70-1] |
| < 100 | Cc1cc(Nc2nccc(C(C)C)n2)cc(-c2cnc(C(C)(C)S(N)(=O)=O)s2)c1 [Example 70-2] |

Same assay, conditions: rhSYK Activity, Table 74B

| IC50 [nM] | Compound |
| --- | --- |
| < 100 | Cc1cc(Nc2nccc(C(F)(F)F)n2)cc(-c2cnc(C3(S(C)(=O)=O)CCC3)s2)c1 [Example 74B-2] |
| 1000 to 10000 | CS(=O)(=O)C1(c2ncc(-c3cc(Nc4nccc(C(F)(F)F)n4)cc([N+](=O)[O-])c3)s2)CCC1 [Example 74B-3] |
| < 100 | Cc1cc(Nc2nccc(C(F)(F)F)n2)cc(-c2cnc(C3(S(N)(=O)=O)CCC3)s2)c1 [Example 74B-4] |

Same assay, conditions: rhSYK Activity, table after Example 68

| IC50 [nM] | Compound |
| --- | --- |
| 100 to 1000 | Cc1cc(Nc2ncc(C(=O)O)cn2)cc(-c2cnc(C3(O)CCC3)s2)c1 [Example 68-1] |
| < 100 | OC1(c2ncc(-c3cccc(Nc4nccc(C(F)(F)F)n4)c3)s2)CCC1 [Example 68-2] |

Same assay, conditions: rhSYK Activity, table after Example 75

| IC50 [nM] | Compound |
| --- | --- |
| < 100 | NS(=O)(=O)Cc1ncc(-c2cccc(Nc3nccc(C(F)(F)F)n3)c2)s1 [Example 75-1] |
| < 100 | COc1ccnc(Nc2cc(C)cc(-c3cnc(CS(N)(=O)=O)s3)c2)n1 [Example 75-2] |
